Measurements: patent US6461997B1, “Triazole sulfones having herbicidal activity” (Monsanto Technology LLC, priority 1999, dated 2002)

Each molecule was assayed on SETFA (giant foxtail) (assay: Pre-plant incorporated (PPI) herbicidal activity, warm season). Details: PPI application, 30 g/ha.
Format: in vivo, Setaria faberi
Experimental: (§1) In another set of tests, the pre-plant incorporated (PPI) activity of compounds of this invention was evaluated on the same species as for the pre-emergence tests described above. In the PPI tests the following procedure, designed to simulate PPI application, was used.
(§2) A pre-prepared topsoil mixture (described above) was placed in a pot and compacted to a depth of 1.0 to 1.25 cm from the top of the pot. Seeds of each of several monocotyledonous and dicotyledonous annual plant species were placed on top of the soil. A sufficient quantity of soil to cover the seeds and level fill the pot was weighed into an open container. A known amount of the test compound was dissolved or suspended in an organic solvent and applied by spraying to this cover soil. The cover soil was thoroughly mixed to distribute the test compound throughout the cover soil, and was then applied as a cover layer over the seeds. Untreated soil was used as a cover layer for control pots. After treatment the plants were placed in a greenhouse where they received 0.64 cm of overhead irrigation. All subsequent watering consisted of a light overhead mist and/or subirrigation as needed for germination and growth. Tables 9 and 10 below relate to warm season plant species which were placed after pre-emergence treatment in a greenhouse with a 30/21° C. day/night temperature regime. Tables 11 and 12 below relates to cool season plant species placed after pre-emergence treatment in a greenhouse or growth chamber with an 18/13° C. day/night temperature regime. Only the compounds of Examples 1, 6, 8, 11, 13 and 15-20 were included in PPI tests.
(§3) Approximately 14 days after planting and treating, the plants were observed and herbicidal efficacy recorded as percent inhibition by comparison with untreated plants.

Compound | Percent inhibition SETFA [%]
CCN(CC)C(=O)n1cnc(S(=O)(=O)C(F)(F)Cl)n1 [Example 3] | 100
CCN(CC)C(=O)n1cnc(S(=O)(=O)C(F)(F)C(F)(F)Br)n1 [Example 4] | 100
CCN(CC)C(=O)n1cnc(S(=O)(=O)C(F)(F)F)n1 [Example 2] | 20

Same assay, conditions: PPI application, 100 g/ha

Compound | Percent inhibition SETFA [%]
CCN(CC)C(=O)n1cnc(S(=O)(=O)C(F)(F)Cl)n1 [Example 3] | 100
CCN(CC)C(=O)n1cnc(S(=O)(=O)C(F)(F)C(F)(F)Br)n1 [Example 4] | 100
CCN(CC)C(=O)n1cnc(S(=O)(=O)C(F)(F)F)n1 [Example 2] | 100

Same assay, conditions: PPI application, 300 g/ha

Compound | Percent inhibition SETFA [%]
CCN(CC)C(=O)n1cnc(S(=O)(=O)C(F)(F)Cl)n1 [Example 3] | 100
CCN(CC)C(=O)n1cnc(S(=O)(=O)C(F)(F)C(F)(F)Br)n1 [Example 4] | 100
CCN(CC)C(=O)n1cnc(S(=O)(=O)C(F)(F)F)n1 [Example 2] | 100

Same assay, conditions: PPI application, 900 g/ha

Compound | Percent inhibition SETFA [%]
CCN(CC)C(=O)n1cnc(S(=O)(=O)C(F)(F)Cl)n1 [Example 3] | 100
CCN(CC)C(=O)n1cnc(S(=O)(=O)C(F)(F)C(F)(F)Br)n1 [Example 4] | 100
CCN(CC)C(=O)n1cnc(S(=O)(=O)C(F)(F)F)n1 [Example 2] | 90

Same assay, conditions: pre-plant incorporated; lowest tested rate with 80% or greater inhibition; about 14 days

Compound | PPI activity GR80, SETFA [g/ha]
CCN(CC)C(=O)n1cnc(S(=O)(=O)C(F)(F)C(=O)c2ccccc2)n1 [Example 6] | 100

Each molecule was assayed on BROTE (downy brome) (assay: Pre-plant incorporated (PPI) herbicidal activity, cool season). Details: pre-plant incorporated; lowest tested rate with 80% or greater inhibition; about 14 days.
Format: in vivo, Bromus tectorum
Experimental: as §1, §2, §3

Compound | PPI activity GR80, BROTE
CCN(CC)C(=O)n1cnc(S(=O)(=O)C(F)(F)C(=O)c2ccccc2)n1 [Example 6] | * (activity observed, at least at highest rate, but <80% inhibition)

Same assay, conditions: weed, PPI application, 30 g/ha

Compound | Percent inhibition BROTE [%]
CCN(CC)C(=O)n1cnc(S(=O)(=O)C(F)(F)Cl)n1 [Example 3] | 0
CCN(CC)C(=O)n1cnc(S(=O)(=O)C(F)(F)C(F)(F)Br)n1 [Example 4] | 0
CCN(CC)C(=O)n1cnc(S(=O)(=O)C(F)(F)F)n1 [Example 2] | 0

Same assay, conditions: weed, PPI application, 100 g/ha

Compound | Percent inhibition BROTE [%]
CCN(CC)C(=O)n1cnc(S(=O)(=O)C(F)(F)Cl)n1 [Example 3] | 30
CCN(CC)C(=O)n1cnc(S(=O)(=O)C(F)(F)C(F)(F)Br)n1 [Example 4] | 50
CCN(CC)C(=O)n1cnc(S(=O)(=O)C(F)(F)F)n1 [Example 2] | 40

Same assay, conditions: weed, PPI application, 300 g/ha

Compound | Percent inhibition BROTE [%]
CCN(CC)C(=O)n1cnc(S(=O)(=O)C(F)(F)Cl)n1 [Example 3] | 90
CCN(CC)C(=O)n1cnc(S(=O)(=O)C(F)(F)C(F)(F)Br)n1 [Example 4] | 85
CCN(CC)C(=O)n1cnc(S(=O)(=O)C(F)(F)F)n1 [Example 2] | 50

Same assay, conditions: weed, PPI application, 900 g/ha

Compound | Percent inhibition BROTE [%]
CCN(CC)C(=O)n1cnc(S(=O)(=O)C(F)(F)Cl)n1 [Example 3] | 95
CCN(CC)C(=O)n1cnc(S(=O)(=O)C(F)(F)C(F)(F)Br)n1 [Example 4] | 90
CCN(CC)C(=O)n1cnc(S(=O)(=O)C(F)(F)F)n1 [Example 2] | 100

These molecules were tested on PANDI (fall panicum) (assay: Pre-emergence herbicidal activity, warm season). Details: GR80 = lowest tested rate (300, 100, 30, 10 g/ha) with 80% or greater inhibition; approx. 14 days after treating; 30/21° C.
Format: in vivo, Panicum dichotomiflorum
How it was run: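 Seeds sown in sterilised fertilised topsoil received surface-applied compound in 50:50 acetone/water, typically at 300, 100, 30 and 10 g/ha, then greenhouse-grown at 30/21° C (warm-season species) or 18/13° C (cool-season species). Percent inhibition versus untreated plants was scored at about 14 days, giving GR80; an asterisk marks activity short of 80% at the top rate.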

Compound | Pre-emergence activity (GR80) PANDI [g/ha]
CCN(CC)C(=O)n1cnc(S(=O)(=O)C(F)(F)Cl)n1 [Example 3] | 100
CCN(CC)C(=O)n1cnc(S(=O)(=O)C(F)(F)C(=O)c2ccccc2)n1 [Example 6] | 300
CCN(CC)C(=O)n1cnc(S(=O)(=O)C(F)(F)C(F)(F)Br)n1 [Example 4] | 30
CCN(CC)C(=O)n1cnc(S(=O)(=O)C(F)(F)F)n1 [Example 2] | 30

These molecules were tested on SETVI (green foxtail) (assay: Pre-plant incorporated (PPI) herbicidal activity, cool season). Details: pre-plant incorporated; lowest tested rate with 80% or greater inhibition; about 14 days.
Format: in vivo, Setaria viridis
Experimental: as §1, §2, §3

Compound | PPI activity GR80, SETVI [g/ha]
CCN(CC)C(=O)n1cnc(S(=O)(=O)C(F)(F)C(=O)c2ccccc2)n1 [Example 6] | 300

Same assay, conditions: weed, PPI application, 30 g/ha

Compound | Percent inhibition SETVI [%]
CCN(CC)C(=O)n1cnc(S(=O)(=O)C(F)(F)Cl)n1 [Example 3] | 100
CCN(CC)C(=O)n1cnc(S(=O)(=O)C(F)(F)C(F)(F)Br)n1 [Example 4] | 99
CCN(CC)C(=O)n1cnc(S(=O)(=O)C(F)(F)F)n1 [Example 2] | 80

Same assay, conditions: weed, PPI application, 100 g/ha

Compound | Percent inhibition SETVI [%]
CCN(CC)C(=O)n1cnc(S(=O)(=O)C(F)(F)Cl)n1 [Example 3] | 100
CCN(CC)C(=O)n1cnc(S(=O)(=O)C(F)(F)C(F)(F)Br)n1 [Example 4] | 100
CCN(CC)C(=O)n1cnc(S(=O)(=O)C(F)(F)F)n1 [Example 2] | 100

Same assay, conditions: weed, PPI application, 300 g/ha

Compound | Percent inhibition SETVI [%]
CCN(CC)C(=O)n1cnc(S(=O)(=O)C(F)(F)Cl)n1 [Example 3] | 100
CCN(CC)C(=O)n1cnc(S(=O)(=O)C(F)(F)C(F)(F)Br)n1 [Example 4] | 100
CCN(CC)C(=O)n1cnc(S(=O)(=O)C(F)(F)F)n1 [Example 2] | 100

Same assay, conditions: weed, PPI application, 900 g/ha

Compound | Percent inhibition SETVI [%]
CCN(CC)C(=O)n1cnc(S(=O)(=O)C(F)(F)Cl)n1 [Example 3] | 100
CCN(CC)C(=O)n1cnc(S(=O)(=O)C(F)(F)C(F)(F)Br)n1 [Example 4] | 100
CCN(CC)C(=O)n1cnc(S(=O)(=O)C(F)(F)F)n1 [Example 2] | 100

Each molecule was assayed on STEME (common chickweed) in the same assay as above. Details: pre-plant incorporated; lowest tested rate with 80% or greater inhibition; about 14 days.
Format: in vivo, Stellaria media
Experimental: as §1, §2, §3

Compound | PPI activity GR80, STEME [g/ha]
CCN(CC)C(=O)n1cnc(S(=O)(=O)C(F)(F)C(=O)c2ccccc2)n1 [Example 6] | 100

Same assay, conditions: weed, PPI application, 30 g/ha

Compound | Percent inhibition STEME [%]
CCN(CC)C(=O)n1cnc(S(=O)(=O)C(F)(F)Cl)n1 [Example 3] | 60
CCN(CC)C(=O)n1cnc(S(=O)(=O)C(F)(F)C(F)(F)Br)n1 [Example 4] | 10
CCN(CC)C(=O)n1cnc(S(=O)(=O)C(F)(F)F)n1 [Example 2] | 60

Same assay, conditions: weed, PPI application, 100 g/ha

Compound | Percent inhibition STEME [%]
CCN(CC)C(=O)n1cnc(S(=O)(=O)C(F)(F)Cl)n1 [Example 3] | 80
CCN(CC)C(=O)n1cnc(S(=O)(=O)C(F)(F)C(F)(F)Br)n1 [Example 4] | 60
CCN(CC)C(=O)n1cnc(S(=O)(=O)C(F)(F)F)n1 [Example 2] | 90

Same assay, conditions: weed, PPI application, 300 g/ha

Compound | Percent inhibition STEME [%]
CCN(CC)C(=O)n1cnc(S(=O)(=O)C(F)(F)Cl)n1 [Example 3] | 100
CCN(CC)C(=O)n1cnc(S(=O)(=O)C(F)(F)C(F)(F)Br)n1 [Example 4] | 80
CCN(CC)C(=O)n1cnc(S(=O)(=O)C(F)(F)F)n1 [Example 2] | 80

Same assay, conditions: weed, PPI application, 900 g/ha

Compound | Percent inhibition STEME [%]
CCN(CC)C(=O)n1cnc(S(=O)(=O)C(F)(F)Cl)n1 [Example 3] | 100
CCN(CC)C(=O)n1cnc(S(=O)(=O)C(F)(F)C(F)(F)Br)n1 [Example 4] | 95
CCN(CC)C(=O)n1cnc(S(=O)(=O)C(F)(F)F)n1 [Example 2] | 95
